Experimental data reported in publication PMC8117417, “Novel Trifluoromethyl Pyrimidinone Compounds With Activity Against Mycobacterium tuberculosis” (Frontiers in Chemistry, 2021).
Values after ≈ are worked out from the molar mass of the structure shown.

Assays:
[1] = tested on: HepG2 human liver cells; assay: Cytotoxicity against HepG2 cells (CellTiter-Glo); assay type: cell-based; settings: concentration required to inhibit growth of HepG2 cells by 50%, 72 h exposure
Method: Cytotoxicity was measured after 72 h of compound exposure at 37°C and 5% CO2 using CellTiter-Glo (Promega).

[2] = tested on: M. tuberculosis H37Rv; assay: Minimum inhibitory concentration (IC90) against fluorescent M. tuberculosis in liquid culture; settings: for IC90: read-out: MTB IC90; for IC90 / MTB IC90: concentration required to inhibit M. tuberculosis growth by 90%, aerobic culture, 5 days, 7H9-OADC-Tw
[3] = MTB IC90 assay, Figure 1 primary hits and reference drugs in this assay

Row | Molecule | IC90 [2] | MIC [2, 3] | IC50 ([1]; Homo sapiens, HepG2, 72 h) | melting point | also measured
1 | 5-Cyclopentyl-2-(Pyridin-2-yl)-6-(Trifluoromethyl)Pyrimidin-4(3H)-One [Compound 57] | 10 ± 2.6 µM | – | – | – | IC50 [1]: 5.9 ± 0.57 µM
2 | O=C1c2ccccc2-c2nn3c(=O)cc(C(F)(F)F)nc3nc21 [Compound 1] | – | 3.1 ± 0.49 µM (≈ 0.986 µg/mL) | – | – | –
3 | CCCCc1c(C(F)(F)F)nc(-c2ccccn2)[nH]c1=O [Compound 2] | – | 6.8 ± 2.0 µM (≈ 2.02 µg/mL) | 5.3 ± 1.2 µM | – | –
4 | Cc1c(C(F)(F)F)nc(-c2cc(COc3ccc(O)cc3)ccn2)[nH]c1=O [Compound 3] | 7.6 ± 0.85 µM | 7.6 ± 0.85 µM (≈ 2.87 µg/mL) | 7.4 ± 0.28 µM | – | –
5 | O=c1cc(C(F)(F)F)nc(-c2cc(CCc3ccc(O)cc3)ccn2)[nH]1 [Compound 4] | – | 4.2 ± 2.1 µM (≈ 1.52 µg/mL) | – | – | –
6 | O=c1cc(C(F)(F)F)nc(-c2cc(OCc3ccccc3)ccn2)[nH]1 [Compound 6] | 1.3 ± 0.21 µM | 1.3 ± 0.21 µM (≈ 0.451 µg/mL) | 2.5 ± 0.78 µM | – | –
7 | COC(=O)Cc1ccc(OCc2ccnc(-c3nc(C(F)(F)F)cc(=O)[nH]3)c2)cc1 [Compound 7] | 3.3 ± 0.71 µM | 3.3 ± 0.71 µM (≈ 1.38 µg/mL) | 7.1 ± 0.14 µM | – | –
8 | N#Cc1ccc(COc2ccnc(-c3nc(C(F)(F)F)cc(=O)[nH]3)c2)cc1 [Compound 9] | 3.7 ± 0.85 µM | 3.7 ± 0.85 µM (≈ 1.38 µg/mL) | 6.1 ± 2.1 µM | – | –
9 | O=c1[nH]c(-c2ccccn2)nc(C(F)(F)F)c1CC1CC1 [Compound 11] | 7.9 ± 2.1 µM | 7.9 ± 2.1 µM (≈ 2.33 µg/mL) | 11 ± 4.7 µM | – | –
10 | CCOC(=O)CCCc1c(C(F)(F)F)nc(-c2ccccn2)[nH]c1=O [Compound 12] | 3.1 ± 0.57 µM | 3.1 ± 0.57 µM (≈ 1.1 µg/mL) | 10 ± 4.3 µM | – | –
11 | CCCc1c(C(F)(F)F)nc(-c2ccccn2)[nH]c1=O [Compound 13] | 10 ± 1.3 µM | 10 ± 1.3 µM (≈ 2.83 µg/mL) | 12 ± 1.4 µM | – | –
12 | CC(C)Cc1c(C(F)(F)F)nc(-c2ccccn2)[nH]c1=O [Compound 14] | 5.8 ± 1.3 µM | 5.8 ± 1.3 µM (≈ 1.72 µg/mL) | 7.5 ± 1.3 µM | – | –
13 | N#Cc1ccc(OCc2ccnc(-c3nc(C(F)(F)F)cc(=O)[nH]3)c2)cc1 [Compound 15] | 5.3 ± 1.3 µM | 5.3 ± 1.3 µM (≈ 1.97 µg/mL) | 7.4 ± 1.6 µM | – | –
14 | O=c1cc(C(F)(F)F)nc(-c2ccccn2)[nH]1 [Compound 16, 2-(Pyridin-2-yl)-6-(Trifluoromethyl)Pyrimidin-4(3H)-One] | 4.9 ± 0.79 µM | – | > 100 µM | – | HepG2 IC50 [1]: lacked cytotoxicity
15 | O=c1cc(C(F)(F)F)nc(-c2ncccc2O)[nH]1 [Compound 17, 2-(3-Hydroxypyridin-2-yl)-6-(Trifluoromethyl)Pyrimidin-4(3H)-One] | 3.3 ± 1.1 µM | – | 16 ± 7.6 µM | – | –
16 | O=c1cc(C(F)(F)F)nc(-c2ncccn2)[nH]1 [Compound 18, 6-(Trifluoromethyl)-[2,2′-Bipyrimidin]-4(3H)-One] | > 20 µM | – | > 100 µM | 236 to 238 °C | HepG2 IC50 [1]: abolished activity and cytotoxicity; MTB IC90 [2]: abolished activity
17 | COc1cccnc1-c1nc(C(F)(F)F)cc(=O)[nH]1 [Compound 19, 2-(3-Methoxypyridin-2-yl)-6-(Trifluoromethyl)Pyrimidin-4(3H)-One] | > 20 µM | – | > 100 µM | 178 to 179 °C | –
18 | O=c1cc(C(F)(F)F)nc(-c2cccnc2)[nH]1 [Compound 20, 2-(Pyridin-3-yl)-6-(Trifluoromethyl)Pyrimidin-4(3H)-One] | > 20 µM | – | > 100 µM | 276 to 277 °C | –
19 | O=c1cc(C(F)(F)F)nc(-c2ncccc2Cl)[nH]1 [Compound 21, 2-(3-Chloropyridin-2-yl)-6-(Trifluoromethyl)Pyrimidin-4(3H)-One] | > 20 µM | – | > 100 µM | – | –
20 | Cc1c(C(F)(F)F)nc(-c2cccnc2)[nH]c1=O [Compound 22, 5-Methyl-2-(Pyridin-3-yl)-6-(Trifluoromethyl)Pyrimidin-4(3H)-One] | > 20 µM | – | > 100 µM | 213 to 215 °C | –
21 | Cc1c(C(F)(F)F)nc(-c2ccncc2)[nH]c1=O [Compound 23, 5-Methyl-2-(Pyridin-4-yl)-6-(Trifluoromethyl)Pyrimidin-4(3H)-One] | > 20 µM | – | > 100 µM | 228 to 230 °C | –
22 | O=c1cc(C(F)(F)F)nc(-c2ccccc2)[nH]1 [Compound 24, 2-Phenyl-6-(Trifluoromethyl)Pyrimidin-4(3H)-One] | > 20 µM | – | > 100 µM | 225 to 227 °C | –

Row | Molecule | IC90 [2] | MIC [2, 3] | IC50 ([1]; Homo sapiens, HepG2, 72 h) | melting point | also measured
23 | O=c1cc(C(F)(F)F)nc(-c2ccccc2OC(F)(F)F)[nH]1 [Compound 25] | > 20 µM | – | > 100 µM | – | –
24 | O=c1cc(C(F)(F)F)nc(-c2ncccc2F)[nH]1 [Compound 26, 2-(3-Fluoropyridin-2-yl)-6-(Trifluoromethyl)Pyrimidin-4(3H)-One] | > 20 µM | – | > 100 µM | – | –
25 | O=c1cc(C(F)(F)F)nc(C2CCCCC2)[nH]1 [Compound 27, 2-Cyclohexyl-6-(Trifluoromethyl)Pyrimidin-4(3H)-One] | > 20 µM | – | 90 ± 17 µM | 198 to 199 °C | –
26 | O=c1cc(C(F)(F)F)nc(-c2ccccc2F)[nH]1 [Compound 28, 2-(2-Fluorophenyl)-6-(Trifluoromethyl)Pyrimidin-4(3H)-One] | > 20 µM | – | > 100 µM | 168 to 169 °C | –
27 | Cc1cccc(C)c1-c1nc(C(F)(F)F)cc(=O)[nH]1 [Compound 29, 2-(2,6-Dimethylphenyl)-6-(Trifluoromethyl)Pyrimidin-4(3H)-One] | > 20 µM | – | > 100 µM | 201 to 202 °C | –
28 | Cc1ccccc1-c1nc(C(F)(F)F)cc(=O)[nH]1 [Compound 30, 2-(o-Tolyl)-6-(Trifluoromethyl)Pyrimidin-4(3H)-One] | > 20 µM | – | > 100 µM | 155 to 156 °C | –
29 | O=c1cc(C(F)(F)F)nc(-c2ccccc2O)[nH]1 [Compound 31, 2-(2-Hydroxyphenyl)-6-(Trifluoromethyl)Pyrimidin-4(3H)-One] | > 20 µM | – | 79 ± 7.8 µM | 236 to 238 °C | –
30 | Cc1c(C(F)(F)F)nc[nH]c1=O [Compound 32, 5-Methyl-6-(Trifluoromethyl)Pyrimidin-4(3H)-One] | > 20 µM | – | > 100 µM | 183 to 185 °C | MTB IC90 [2]: no antibacterial activity
31 | COc1ccccc1-c1nc(C(F)(F)F)c(C)c(=O)[nH]1 [Compound 34, 2-(2-Methoxyphenyl)-5-Methyl-6-(Trifluoromethyl)Pyrimidin-4(3H)-One] | – | – | 95 ± 9.5 µM | 158 to 160 °C | –
32 | Cc1c(C(F)(F)F)nc(-c2ccccc2)[nH]c1=O [Compound 35, 5-Methyl-2-Phenyl-6-(Trifluoromethyl)Pyrimidin-4(3H)-One] | > 20 µM | – | > 100 µM | 256 to 259 °C | –
33 | Cc1c(C(F)(F)F)nc(-c2ccccc2F)[nH]c1=O [Compound 36, 2-(2-Fluorophenyl)-5-Methyl-6-(Trifluoromethyl)pyrimidin-4(3H)-One] | > 20 µM | – | > 100 µM | 139 to 141 °C | –
34 | Cc1c(C(F)(F)F)nc(-c2ccccc2Cl)[nH]c1=O [Compound 37, 2-(2-Chlorophenyl)-5-Methyl-6-(Trifluoromethyl)Pyrimidin-4(3H)-One] | > 20 µM | – | 86 ± 24 µM | 165 to 167 °C | –
35 | Cc1c(C(F)(F)F)nc(-c2ncccc2Cl)[nH]c1=O [Compound 38, 2-(3-Chloropyridin-2-yl)-5-Methyl-6-(Trifluoromethyl)Pyrimidin-4(3H)-One] | > 20 µM | – | > 100 µM | – | –
36 | COc1cccnc1-c1nc(C(F)(F)F)c(C)c(=O)[nH]1 [Compound 39, 2-(3-Methoxypyridin-2-yl)-5-Methyl-6-(Trifluoromethyl)Pyrimidin-4(3H)-One] | > 20 µM | – | > 100 µM | 164 to 165 °C | –
37 | Cc1c(C(F)(F)F)nc(C2CCCCC2)[nH]c1=O [Compound 40, 2-Cyclohexyl-5-Methyl-6-(Trifluoromethyl)Pyrimidin-4(3H)-One] | > 20 µM | – | > 100 µM | 169 to 170 °C | –
38 | Cc1c(C(F)(F)F)nc(-c2ncccn2)[nH]c1=O [Compound 41, 5-Methyl-6-(Trifluoromethyl)-[2,2′-Bipyrimidin]-4(3H)-One] | > 20 µM | – | > 100 µM | 229 to 230 °C | –
39 | Cc1c(C(F)(F)F)nc(-c2ncccc2F)[nH]c1=O [Compound 45, 2-(3-Fluoropyridin-2-yl)-5-Methyl-6-(Trifluoromethyl)Pyrimidin-4(3H)-One] | > 20 µM | – | > 100 µM | – | –
40 | Cc1nc(-c2ccccn2)[nH]c(=O)c1C [Compound 49, 5,6-Dimethyl-2-(Pyridin-2-yl)Pyrimidin-4(3H)-One] | > 20 µM | – | 88 ± 6.9 µM | – | –
41 | COc1c(C(F)(F)F)nc(-c2ccccn2)[nH]c1=O [Compound 56, 5-Methoxy-2-(Pyridin-2-yl)-6-(Trifluoromethyl)Pyrimidin-4(3H)-One] | 6.1 ± 0.26 µM | – | 5 ± 0.82 µM | – | –
42 | CC[C@@H](CO)NCCN[C@@H](CC)CO [ethambutol, reference compound] | – | 3.3 ± 0.4 µM (≈ 0.674 µg/mL) | – | – | –
43 | NNC(=O)c1ccncc1 [isoniazid, reference compound] | – | 0.6 ± 0.2 µM (≈ 0.0823 µg/mL) | – | – | –
44 | CO[C@H]1/C=C/O[C@@]2(C)Oc3c(C)c(O)c4c(O)c(c(/C=N/N5CCN(C)CC5)c(O)c4c3C2=O)NC(=O)/C(C)=C\C=C\[C@H](C)[C@H](O)[C@@H](C)[C@@H](O)[C@@H](C)[C@H](OC(C)=O)[C@@H]1C [rifampicin, reference compound] | – | – | – | – | MIC ([2]; reference drug in this assay): 0.008 ± 0.0002 µM (≈ 0.00658 µg/mL)
